From PubChem BioAssay AID1963979 (Molecular Pharmacology Branch, DTP, NCI, 2024)

Test system: 361931-004-R-J1-PDC multicell spheroid viability
Test: Anticancer human tumor 361931-004-R-J1-PDC patient-derived colon adenocarcinoma cell line growth inhibition [PI3K]
Settings: for IC50: curve of first compound; for viability, T/C: stronger effect = lower value
Method in brief: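 Tumor cells were combined with HUVEC and MSCs into spheroids, then dosed with PI3K-inhibitor combinations over half-log ranges capped near clinical Cmax or 10 microM.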

[1] = second compound 0.0316 µM, first compound 0.0316 µM
[2] = second compound 0.0316 µM, first compound 0.1 µM
[3] = second compound 0.1 µM, first compound 0.0316 µM
[4] = second compound 0.1 µM, first compound 0.1 µM
[5] = second compound 0.316 µM, first compound 0.0316 µM
[6] = second compound 0.316 µM, first compound 0.1 µM
[7] = second compound 1 µM, first compound 0.0316 µM
[8] = second compound 1 µM, first compound 0.1 µM
[9] = second compound 3.16 µM, first compound 0.0316 µM
[10] = second compound 3.16 µM, first compound 0.1 µM
[11] = second compound 10 µM, first compound 0.0316 µM
[12] = second compound 10 µM, first compound 0.1 µM
[13] = second compound 0.0316 µM, first compound 0.316 µM
[14] = second compound 0.0316 µM, first compound 1 µM
[15] = second compound 0.0316 µM, first compound 3.16 µM
[16] = second compound 0.0316 µM, first compound 10 µM
[17] = second compound 0.1 µM, first compound 0.316 µM
[18] = second compound 0.1 µM, first compound 1 µM
[19] = second compound 0.1 µM, first compound 3.16 µM
[20] = second compound 0.1 µM, first compound 10 µM
[21] = second compound 0.316 µM, first compound 0.316 µM
[22] = second compound 0.316 µM, first compound 1 µM
[23] = second compound 0.316 µM, first compound 3.16 µM
[24] = second compound 0.316 µM, first compound 10 µM
[25] = second compound 1 µM, first compound 0.316 µM
[26] = second compound 1 µM, first compound 1 µM
[27] = second compound 1 µM, first compound 3.16 µM
[28] = second compound 1 µM, first compound 10 µM
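Note: spheroids exposed to agents for seven days before readout.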

`CC(C)n1nc(-c2ccc3oc(N)nc3c2)c2c(N)ncnc21` + CC(Nc1ncnc2nc[nH]c12)c1cc2cccc(Cl)c2c(=O)n1-c1ccccc1 gave an IC50 (second compound 0.0316 µM) greater than 100 nM, an IC50 (second compound 0.1 µM) greater than 100 nM and an IC50 (second compound 0.316 µM) greater than 100 nM. It also gave an IC50 (second compound 1 µM) greater than 100 nM, an IC50 (second compound 3.16 µM) greater than 100 nM and an IC50 (second compound 10 µM) greater than 100 nM. The viability, T/C (second compound 0.0316 µM, first compound 0.000316 µM) was 103%, the viability, T/C (second compound 0.0316 µM, first compound 0.001 µM) was 107% and the viability, T/C (second compound 0.0316 µM, first compound 0.00316 µM) was 105%. It also gave a viability, T/C (second compound 0.0316 µM, first compound 0.01 µM) of 104%, a viability, T/C [1] of 108% and a viability, T/C [2] of 77.9%. The viability, T/C (second compound 0.1 µM, first compound 0.000316 µM) was 111%, the viability, T/C (second compound 0.1 µM, first compound 0.001 µM) was 106% and the viability, T/C (second compound 0.1 µM, first compound 0.00316 µM) was 104%. The viability, T/C (second compound 0.1 µM, first compound 0.01 µM) was 99.1%, the viability, T/C [3] was 107% and the viability, T/C [4] was 81.5%. For the same compound, the viability, T/C (second compound 0.316 µM, first compound 0.000316 µM) was 98.2%, the viability, T/C (second compound 0.316 µM, first compound 0.001 µM) was 103% and the viability, T/C (second compound 0.316 µM, first compound 0.00316 µM) was 108%. For the same compound, the viability, T/C (second compound 0.316 µM, first compound 0.01 µM) was 109%, the viability, T/C [5] was 115% and the viability, T/C [6] was 74.8%. It also gave a viability, T/C (second compound 1 µM, first compound 0.000316 µM) of 97.4%, a viability, T/C (second compound 1 µM, first compound 0.001 µM) of 105% and a viability, T/C (second compound 1 µM, first compound 0.00316 µM) of 104%. The viability, T/C (second compound 1 µM, first compound 0.01 µM) was 107%, the viability, T/C [7] was 105% and the viability, T/C [8] was 72.3%. For the same compound, the viability, T/C (second compound 3.16 µM, first compound 0.000316 µM) was 109%, the viability, T/C (second compound 3.16 µM, first compound 0.001 µM) was 106% and the viability, T/C (second compound 3.16 µM, first compound 0.00316 µM) was 100%. For the same compound, the viability, T/C (second compound 3.16 µM, first compound 0.01 µM) was 96.2%, the viability, T/C [9] was 100% and the viability, T/C [10] was 72.4%. For the same compound, the viability, T/C (second compound 10 µM, first compound 0.000316 µM) was 107%, the viability, T/C (second compound 10 µM, first compound 0.001 µM) was 107% and the viability, T/C (second compound 10 µM, first compound 0.00316 µM) was 107%. It also gave a viability, T/C (second compound 10 µM, first compound 0.01 µM) of 104%, a viability, T/C [11] of 103% and a viability, T/C [12] of 63.5%.
With `CC(Cn1ccc(-c2ccc(C#N)c(Cl)c2)n1)NC(=O)c1cc(C(C)O)[nH]n1` (stereo unspecified) + COc1c(OCCCN2CCOCC2)ccc2c3n(c(=NC(=O)c4cnc(N)nc4)nc12)CCN3 the IC50 (second compound 0.00316 µM) was greater than 10000 nM, the IC50 (second compound 0.01 µM) was greater than 10000 nM and the IC50 (second compound 0.0316 µM) was greater than 10000 nM. It also gave an IC50 (second compound 0.1 µM) greater than 10000 nM, an IC50 (second compound 0.316 µM) of 48.7 nM and an IC50 (second compound 1 µM) of less than 31.6 nM. It also gave a viability, T/C (second compound 0.00316 µM, first compound 0.0316 µM) of 103%, a viability, T/C (second compound 0.00316 µM, first compound 0.1 µM) of 92.1% and a viability, T/C (second compound 0.00316 µM, first compound 0.316 µM) of 97.7%. It also gave a viability, T/C (second compound 0.00316 µM, first compound 1 µM) of 103%, a viability, T/C (second compound 0.00316 µM, first compound 3.16 µM) of 103% and a viability, T/C (second compound 0.00316 µM, first compound 10 µM) of 98%. The viability, T/C (second compound 0.01 µM, first compound 0.0316 µM) was 102%, the viability, T/C (second compound 0.01 µM, first compound 0.1 µM) was 102% and the viability, T/C (second compound 0.01 µM, first compound 0.316 µM) was 99.1%. It also gave a viability, T/C (second compound 0.01 µM, first compound 1 µM) of 93.5%, a viability, T/C (second compound 0.01 µM, first compound 3.16 µM) of 98.1% and a viability, T/C (second compound 0.01 µM, first compound 10 µM) of 95%. The viability, T/C [1] was 95.1%, the viability, T/C [2] was 94.7% and the viability, T/C [13] was 83.5%. It also gave a viability, T/C [14] of 93.4%, a viability, T/C [15] of 89.4% and a viability, T/C [16] of 78%. For the same compound, the viability, T/C [3] was 81.5%, the viability, T/C [4] was 83.2% and the viability, T/C [17] was 76.8%. The viability, T/C [18] was 70.3%, the viability, T/C [19] was 78% and the viability, T/C [20] was 62.1%. For the same compound, the viability, T/C [5] was 51.4%, the viability, T/C [6] was 49.5% and the viability, T/C [21] was 47.6%. It also gave a viability, T/C [22] of 44%, a viability, T/C [23] of 42.4% and a viability, T/C [24] of 30.6%. The viability, T/C [7] was 20.5%, the viability, T/C [8] was 19% and the viability, T/C [25] was 15.8%. The viability, T/C [26] was 19.5%, the viability, T/C [27] was 16.7% and the viability, T/C [28] was 11.9%.
Compound `Cn1ncc(Cl)c1-c1cc(C(=O)NC(CN)Cc2cccc(F)c2)sc1Cl` (stereo unspecified) + CC(Nc1ncnc2nc[nH]c12)c1cc2cccc(Cl)c2c(=O)n1-c1ccccc1 has an IC50 (second compound 0.0316 µM) of 2940 nM, an IC50 (second compound 0.1 µM) of 3340 nM and an IC50 (second compound 0.316 µM) of 2170 nM. It also gave an IC50 (second compound 1 µM) of 2550 nM, an IC50 (second compound 3.16 µM) of 2210 nM and an IC50 (second compound 10 µM) of 2490 nM. It also gave a viability, T/C [1] of 95.2%, a viability, T/C [2] of 98.3% and a viability, T/C [13] of 88.7%. The viability, T/C [14] was 70.6%, the viability, T/C [15] was 49.7% and the viability, T/C [16] was 32.1%. It also gave a viability, T/C [3] of 103%, a viability, T/C [4] of 104% and a viability, T/C [17] of 92.7%. The viability, T/C [18] was 77.5%, the viability, T/C [19] was 50.8% and the viability, T/C [20] was 30.9%. The viability, T/C [5] was 106%, the viability, T/C [6] was 108% and the viability, T/C [21] was 90.8%. It also gave a viability, T/C [22] of 60.4%, a viability, T/C [23] of 48.5% and a viability, T/C [24] of 27.1%. For the same compound, the viability, T/C [7] was 111%, the viability, T/C [8] was 101% and the viability, T/C [25] was 90.1%. For the same compound, the viability, T/C [26] was 61.8%, the viability, T/C [27] was 49.9% and the viability, T/C [28] was 31%. It also gave a viability, T/C [9] of 105%, a viability, T/C [10] of 105% and a viability, T/C (second compound 3.16 µM, first compound 0.316 µM) of 89.4%. The viability, T/C (second compound 3.16 µM, first compound 1 µM) was 65.4%, the viability, T/C (second compound 3.16 µM, first compound 3.16 µM) was 44.4% and the viability, T/C (second compound 3.16 µM, first compound 10 µM) was 24.5%. It also gave a viability, T/C [11] of 97.2%, a viability, T/C [12] of 95.8% and a viability, T/C (second compound 10 µM, first compound 0.316 µM) of 89.5%. The viability, T/C (second compound 10 µM, first compound 1 µM) was 75.4%, the viability, T/C (second compound 10 µM, first compound 3.16 µM) was 43% and the viability, T/C (second compound 10 µM, first compound 10 µM) was 25%.
